The source made the active and inactive calls. The rule behind the calls is not given here.
Assays:
Mus musculus [1] = assay: Acute toxicity in KM mouse assessed as mortality up to 2000 mg/kg, po after 24 hrs; format: organism-based; set-up: dose 2000 mg/kg, route oral; conditions: in vivo
[2] = target: Acetylcholinesterase (Electrophorus electricus) (UniProt O42275); assay: Mixed-type inhibition of electric eel AChE using acetylthiocholine chloride as substrate preincubated for 15 mins followed by substrate addition by Lineweaver-Burk plot analysis
Mus musculus [3] = assay: Acute toxicity in KM mouse assessed as effect on water consumption up to 2000 mg/kg, po after 4 hrs; format: organism-based; set-up: dose 2000 mg/kg, route oral; conditions: in vivo
Acetylcholinesterase [4] = target: T1, Acetylcholinesterase (Electrophorus electricus, UniProt O42275)
Description: Inhibition of electric eel AChE using acetylthiocholine chloride as substrate preincubated for 15 mins followed by substrate addition measured every 1 min by Ellman's method

Mus musculus [5] = assay: Acute toxicity in KM mouse assessed as effect on body weight up to 2000 mg/kg, po after 4 hrs; format: organism-based; set-up: dose 2000 mg/kg, route oral; conditions: in vivo
Mus musculus [6] = assay: Acute toxicity in KM mouse assessed as effect on food consumption up to 2000 mg/kg, po after 4 hrs; format: organism-based; set-up: dose 2000 mg/kg, route oral; conditions: in vivo
Acetylcholinesterase [7] = target: T1, Acetylcholinesterase; assay: […] inhibition of electric eel AChE using acetylthiocholine chloride as substrate preincubated for 15 mins followed by substrate addition by Lineweaver-Burk plot analysis
Acetylcholinesterase [8] = target: Acetylcholinesterase (Homo sapiens, UniProt P22303); assay: Inhibition of human erythrocyte AChE using acetylthiocholine chloride as substrate preincubated for 15 mins followed by substrate addition measured every 1 min by Ellman's method
[9] = Acute toxicity in po dosed KM mouse measured for 14 days; format: organism-based; conditions: in vivo
Cholinesterase = Cholinesterase (Equus caballus, UniProt P81908)
Description: Inhibition of equine serum BuChE using butyrylthiocholine chloride as substrate preincubated for 15 mins followed by substrate addition measured every 1 min by Ellman's method

in vitro = conditions: PAMPA
Description: Effective permeability of the compound at 5 mg/mL after 10 hrs by PAMPA

Sequence of Acetylcholinesterase (Homo sapiens, UniProt P22303) (P22303 whole entry): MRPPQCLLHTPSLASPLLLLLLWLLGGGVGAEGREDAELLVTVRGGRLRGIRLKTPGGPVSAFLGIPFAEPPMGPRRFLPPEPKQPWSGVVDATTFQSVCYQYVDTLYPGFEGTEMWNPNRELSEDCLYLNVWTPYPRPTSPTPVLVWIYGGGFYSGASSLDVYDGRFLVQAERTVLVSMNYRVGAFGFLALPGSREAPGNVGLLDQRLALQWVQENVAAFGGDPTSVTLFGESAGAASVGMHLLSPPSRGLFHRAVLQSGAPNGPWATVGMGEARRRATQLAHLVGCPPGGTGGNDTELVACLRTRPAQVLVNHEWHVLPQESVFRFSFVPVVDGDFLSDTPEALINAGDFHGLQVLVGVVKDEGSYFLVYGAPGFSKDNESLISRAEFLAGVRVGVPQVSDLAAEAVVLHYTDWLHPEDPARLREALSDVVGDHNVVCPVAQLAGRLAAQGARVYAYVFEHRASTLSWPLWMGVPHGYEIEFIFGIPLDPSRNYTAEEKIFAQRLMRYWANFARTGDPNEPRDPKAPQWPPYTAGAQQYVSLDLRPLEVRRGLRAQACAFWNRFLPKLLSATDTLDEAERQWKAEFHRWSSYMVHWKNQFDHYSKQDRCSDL
Sequence of Cholinesterase (P81908 whole entry): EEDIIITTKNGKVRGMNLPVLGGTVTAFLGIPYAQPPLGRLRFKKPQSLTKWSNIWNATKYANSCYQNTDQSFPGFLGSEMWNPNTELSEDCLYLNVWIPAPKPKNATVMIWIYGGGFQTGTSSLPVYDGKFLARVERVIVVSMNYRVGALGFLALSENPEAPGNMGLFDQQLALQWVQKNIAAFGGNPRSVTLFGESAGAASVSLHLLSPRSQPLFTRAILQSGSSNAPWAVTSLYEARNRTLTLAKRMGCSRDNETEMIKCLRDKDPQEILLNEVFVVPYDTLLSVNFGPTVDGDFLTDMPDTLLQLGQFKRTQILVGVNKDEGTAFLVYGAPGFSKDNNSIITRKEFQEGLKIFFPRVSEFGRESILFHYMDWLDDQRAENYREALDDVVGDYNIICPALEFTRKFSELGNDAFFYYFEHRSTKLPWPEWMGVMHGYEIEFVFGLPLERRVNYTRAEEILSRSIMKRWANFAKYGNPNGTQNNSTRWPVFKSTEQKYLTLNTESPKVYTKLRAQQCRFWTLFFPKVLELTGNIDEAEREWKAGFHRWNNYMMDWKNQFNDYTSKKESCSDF
T1 sequence (O42275 whole entry): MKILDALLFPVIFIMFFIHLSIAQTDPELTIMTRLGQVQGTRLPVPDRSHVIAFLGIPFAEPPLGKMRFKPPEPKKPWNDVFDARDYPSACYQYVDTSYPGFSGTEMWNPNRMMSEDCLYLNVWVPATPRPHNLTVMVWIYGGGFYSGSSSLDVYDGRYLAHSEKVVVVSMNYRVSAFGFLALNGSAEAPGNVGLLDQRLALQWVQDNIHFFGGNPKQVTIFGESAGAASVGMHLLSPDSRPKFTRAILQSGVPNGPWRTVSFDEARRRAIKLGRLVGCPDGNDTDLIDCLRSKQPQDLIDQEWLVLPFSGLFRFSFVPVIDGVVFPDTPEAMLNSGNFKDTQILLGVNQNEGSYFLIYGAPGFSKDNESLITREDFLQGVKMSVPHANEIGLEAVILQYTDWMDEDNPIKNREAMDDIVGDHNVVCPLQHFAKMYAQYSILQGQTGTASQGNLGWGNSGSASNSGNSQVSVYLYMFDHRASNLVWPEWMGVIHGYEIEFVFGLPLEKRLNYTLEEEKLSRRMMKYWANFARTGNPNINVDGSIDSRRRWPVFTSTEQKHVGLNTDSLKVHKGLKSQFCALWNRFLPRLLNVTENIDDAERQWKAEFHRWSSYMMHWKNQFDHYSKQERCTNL
Sequence of Acetylcholinesterase (Electrophorus electricus) (O42275 24-633 limits assumed): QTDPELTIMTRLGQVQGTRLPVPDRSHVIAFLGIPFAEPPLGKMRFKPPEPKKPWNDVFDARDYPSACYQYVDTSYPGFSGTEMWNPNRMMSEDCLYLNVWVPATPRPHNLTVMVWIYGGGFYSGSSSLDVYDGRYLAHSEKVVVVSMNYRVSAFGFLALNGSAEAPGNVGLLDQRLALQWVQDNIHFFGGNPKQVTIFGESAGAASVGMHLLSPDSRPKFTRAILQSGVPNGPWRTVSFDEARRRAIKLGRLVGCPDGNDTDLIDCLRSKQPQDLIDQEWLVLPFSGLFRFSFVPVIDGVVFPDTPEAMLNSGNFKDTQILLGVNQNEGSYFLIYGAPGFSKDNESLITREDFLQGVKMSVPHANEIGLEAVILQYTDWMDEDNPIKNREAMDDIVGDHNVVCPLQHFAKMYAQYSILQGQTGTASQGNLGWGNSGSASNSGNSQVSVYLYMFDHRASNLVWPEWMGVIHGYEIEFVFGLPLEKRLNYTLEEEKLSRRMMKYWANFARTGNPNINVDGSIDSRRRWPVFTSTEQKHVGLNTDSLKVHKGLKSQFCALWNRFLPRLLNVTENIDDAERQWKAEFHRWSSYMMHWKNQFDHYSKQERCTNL

COc1cc2[se]n(CCC3CCN(Cc4ccccc4)CC3)c(=O)c2cc1OC
Activity (Mus musculus [1]): Non-toxic | inhibition [2]: Active | Activity (Mus musculus [3]): Non-toxic | IC50 (Acetylcholinesterase [4]): 42 nM | Activity (Mus musculus [5]): Non-toxic | Activity (Mus musculus [6]): Non-toxic | Ki (Acetylcholinesterase [7]): 17 nM | IC50 (Acetylcholinesterase [8]): 97 nM | MTD at 336 h [9]: 2000 mg/kg | IC50 (Cholinesterase): 1590 nM | Papp at 10 h, 5 mg/mL (in vitro): 8.6 ×10⁻⁶ cm/s

O=c1c2ccc(Cl)cc2[se]n1C1CCN(Cc2ccccc2)CC1
IC50 (Acetylcholinesterase [4]): 10100 nM | IC50 (Cholinesterase): 21500 nM

O=c1c2ccccc2[se]n1C1CCN(Cc2ccccc2)CC1
IC50 (Acetylcholinesterase [4]): 17600 nM | IC50 (Cholinesterase): 8320 nM

O=c1c2ccccc2[se]n1CC1CCN(Cc2ccccc2)CC1
IC50 (Acetylcholinesterase [4]): 19800 nM | IC50 (Cholinesterase): 3630 nM

O=c1c2ccc(F)cc2[se]n1CCC1CCN(Cc2ccccc2)CC1
IC50 (Acetylcholinesterase [4]): 224 nM | IC50 (Cholinesterase): 3670 nM

COc1cc2[se]n(CCCC3CCN(Cc4ccccc4)CC3)c(=O)c2cc1OC
IC50 (Acetylcholinesterase [4]): 72 nM | IC50 (Acetylcholinesterase [8]): 231 nM | IC50 (Cholinesterase): 1500 nM | Papp at 10 h, 5 mg/mL (in vitro): 10.3 ×10⁻⁶ cm/s

O=c1c2ccc(Cl)cc2[se]n1CCC1CCN(Cc2ccccc2)CC1
IC50 (Acetylcholinesterase [4]): 206 nM | IC50 (Cholinesterase): 2350 nM

O=c1c2ccc(Cl)cc2[se]n1CC1CCN(Cc2ccccc2)CC1
IC50 (Acetylcholinesterase [4]): 6160 nM | IC50 (Cholinesterase): 2300 nM

COc1cc2c(cc1OC)[Se](=O)N(CCC1CCN(Cc3ccccc3)CC1)C2=O (stereo unspecified)
IC50 (Acetylcholinesterase [4]): 43 nM | IC50 (Acetylcholinesterase [8]): 163 nM | IC50 (Cholinesterase): 1360 nM

O=c1c2ccc(F)cc2[se]n1CC1CCN(Cc2ccccc2)CC1
IC50 (Acetylcholinesterase [4]): 12300 nM | IC50 (Cholinesterase): 3460 nM

COc1cc2[se]n(CCCCC3CCN(Cc4ccccc4)CC3)c(=O)c2cc1OC
IC50 (Acetylcholinesterase [4]): 38 nM | IC50 (Acetylcholinesterase [8]): 103 nM | IC50 (Cholinesterase): 517 nM | Papp at 10 h, 5 mg/mL (in vitro): 15.8 ×10⁻⁶ cm/s

O=c1c2ccccc2[se]n1-c1ccccc1 [EBSELEN]
IC50 (Acetylcholinesterase [4]): 41000 nM | IC50 (Cholinesterase): 10400 nM

O=c1c2ccccc2[se]n1CCC1CCN(Cc2ccccc2)CC1
IC50 (Acetylcholinesterase [4]): 382 nM | IC50 (Cholinesterase): 2130 nM

O=c1c2ccc(F)cc2[se]n1C1CCN(Cc2ccccc2)CC1
IC50 (Acetylcholinesterase [4]): 19700 nM | IC50 (Cholinesterase): 10600 nM

COc1cc2[se]n(CC3CCN(Cc4ccccc4)CC3)c(=O)c2cc1OC
IC50 (Acetylcholinesterase [4]): 4230 nM | IC50 (Cholinesterase): 3920 nM

COc1cc2[se]n(C3CCN(Cc4ccccc4)CC3)c(=O)c2cc1OC
IC50 (Acetylcholinesterase [4]): 11800 nM | IC50 (Cholinesterase): 9460 nM

Source: ChEMBL document CHEMBL3085626, “Synthesis and evaluation of multi-target-directed ligands against Alzheimer's disease based on the fusion of donepezil and ebselen” (J Med Chem, 2013)
